In assay [1] the test system is human prostatic adenocarcinoma cancer PC3 cells. Description: Growth of PC3 prostate tumors in SCID mice. Type of assay: in vivo. An excerpt: (§1) As used herein, the term “T/C value” refers to the value obtained when: (a) the change from baseline in average tumor volume of treated mice is divided by the change from baseline in the average tumor volume of negative control mice; and (b) the numerical value obtained in step (a) is multiplied by 100.
The resultant mice are a model for a human having prostatic cancer.
The human prostatic adenocarcinoma cancer PC3 cells were purchased from the American Type Culture Collection (ATCC). These cells were confirmed to be free of mycoplasma infection. Cells were maintained in the Roswell Park Memorial Institute (RPMI), supplemented with 10% inactivated fetal bovine serum and 1% penicillin-streptomycin-L-Glutamine, under 5% carbon dioxide (CO2) at 37° C. For prostatic-tumor induction, cells were grown lower than 70% confluence in complete medium and then collected with trypsin (Bio Whittaker, Rockland, Me., USA). Cells were then centrifuged and washed 2 times in phosphate buffer solution (PBS) and resuspended in PBS at 1.5×10^6 cells/0.1 mL. PC3 cells were then transplanted subcutaneously into the right flank of SCID mice (Charles River Laboratories, Wilmington, Mass., USA), as a suspension of tumor cells (1.5×10^6 cells in 100 μL PBS), under a laminar airflow hood. Eleven (11) days later, the size of each tumor was measured. […] Relative tumor size and volume was calculated as follows: length (cm)×[width (cm)]^2/2. There were four treatment groups of ten mice each: (a) a negative control group, (b) a positive control group and (c) a group treated with 36.25 μMoles/Kg of Compound 17 Mesylate Salt (d) a group treated with 72.5 μMoles/Kg of Compound 17 Mesylate Salt.
Treatments started on day eleven after PC3 cells transplantation. […] The negative control group was treated with vehicle alone.
Observation continued for 32 days after initial tumor implantation.

For assay [2], the system named is C33A human cervical cancer cells. Description: Growth of C33A cervical tumors in CB17 SCID/SCID mice. Type of assay: in vivo. To be noted: for T/C value: day 42.
Excerpt: as §1
The resultant mice are a model for a human having cervical cancer.
The C33A human cervical cancer cells were maintained in RPMI (Hyclone, Utah, USA) supplemented with 10% inactivated fetal bovine serum (Bio-Whittaker, MD, USA) and 1% penicillin-streptomycin-L-Glutamine (Gibco, N.Y., USA), under 5% CO2 at 37° C., and passaged twice a week. The cells were grown at a confluency lower than 70% and than collected with Trypsin (Bio-Whittaker, MD, USA). The cells were then centrifuged and washed twice using phosphate buffered saline solution (PBS) and resuspended in PBS at 2×10^6 cells per 100 μl. Viability was examined by staining with trypan blue (Gibco, N.Y., USA) and only flasks with cell viability greater than 95% were used for in vivo studies.
C33A cells were injected subcutaneously into the flank of female CB17 SCID/SCID mice. Each mouse was inoculated with a suspension of 2×10^6 tumors cells per 100 μl on day zero. There were three treatment groups of ten mice each: (a) a negative control group, (b) a group treated with Compound 22 MS and (c) a group treated with Compound 37 MS.
Treatments started on day twenty eight after C33A cells transplantation. […] The negative control group was treated with vehicle alone. The injection volume for Compound treated groups and the negative control group was 100 μl.
Observation continued for 51 days after initial tumor implantation.

Setting [3] is: 10 mg/kg iv once a day for five days.
Where [4] appears, read: 2.6 mg/kg iv once a day for five days.

Structures can show the parent of a compound that is named as a salt.

We go through three molecules from patent US8420693B2, “Dipyrrole compounds, compositions, and methods for treating cancer or viral diseases” (Gemin X Pharmaceuticals Canada Inc., priority 2004, dated 2013).

In the case of `COC1=CC(c2ccc(OC)c(OC)c2)=NC1=Cc1[nH]c(C)cc1C` [Compound 17 Mesylate Salt, 2-((3-methoxy-5-(3,4-dimethoxyphenyl)-2H-pyrrol-2-ylidene)methyl)-3,5-dimethyl-1H-pyrrole], the “reduction in tumor growth compared to mice treated with vehicle only” value (“reduction in tumor growth” for short) in assay [1] (36.25 μMoles/Kg iv once a day for five days) is listed as “did not result in a statistical significant reduction in tumor growth”; in assay [1] (72.5 μMoles/Kg iv once a day for five days, days 29 and 32), “statistically significant (p<0.01) reduction in tumor growth”. Further, the T/C value in assay [1] (36.25 μMoles/Kg iv once a day for five days, day 29) is 53%; in assay [1] (36.25 μMoles/Kg iv once a day for five days, day 32), 52%; in assay [1] (72.5 μMoles/Kg iv once a day for five days, day 29), 18%; in assay [1] (72.5 μMoles/Kg iv once a day for five days, day 32), 22%.

Take `COC1=CC(c2ccc(N(C)C)cc2)=NC1=Cc1[nH]c(C)cc1C` [Compound 22 MS, 4-(4-methoxy-5-((3,5-dimethyl-1H-pyrrol-2-yl)methylene)-5H-pyrrol-2-yl)-N,N-dimethylbenzenamine]: in assay [2] (setting [3]), the “reduction in tumor growth” value is given as “statistically significant (p=0.0024) reduction in tumor growth” and the T/C value is 34%.

As for `COC1=CC(c2cnn(Cc3ccccc3)c2)=NC1=Cc1[nH]c(C)cc1C` [Compound 37 MS, 1-benzyl-4-(4-methoxy-5-((3,5-dimethyl-1H-pyrrol-2-yl)methylene)-5H-pyrrol-2-yl)-1H-pyrazole], in assay [2] (setting [4]), the “reduction in tumor growth” value was “statistically significant (p<0.0001) reduction in tumor growth” and the T/C value came to 31%.
